Experimental data from ChEMBL document CHEMBL4219083, “Reduction of Circulating Cancer Cells and Metastases in Breast-Cancer Models by a Potent EphA2-Agonistic Peptide-Drug Conjugate” (J Med Chem, 2018).
Activity calls are given as the source filed them. The rule behind the calls is not given here.

What was measured:
[1] = tested on: Mus musculus; assay: Toxicity in BALB/c mouse implanted with mouse 4T1 cells assessed as reduction in body weight at 24.5 mg/kg administered thrice per week for 2 weeks after 15 days post implantation; assay type: organism-based; conditions: in vivo
[2] = tested on: 4T1; assay: Antimetastatic activity against mouse 4T1 cells implanted in BALB/c mouse assessed as reduction in microscopic lung nodules at 24.5 mg/kg administered thrice per week for 2 weeks after 15 days post implantation by H and E staining-based assay; assay type: functional, organism-based
[3] = tested on: MDA-MB-231; assay: Antimetastatic activity against human MDA-MB-231 cells xenografted in NOD-scid mouse assessed as reduction in tumor burden at 24.5 mg/kg, iv administered thrice per week for 2 weeks; assay type: functional, organism-based
[4] = tested on: 4T1; assay: Antimetastatic activity against mouse 4T1 cells implanted in BALB/c mouse assessed as reduction in gross lung-metastasis count at 24.5 mg/kg administered thrice per week for 2 weeks after 15 days post implantation relative to control; assay type: functional; design: scale not given: the % may be the effect or the level left
[5] = tested on: MDA-MB-231; assay: Antimetastatic activity against human MDA-MB-231 cells xenografted in NOD-scid mouse assessed as reduction in circulating tumor cells at 24.5 mg/kg, iv administered thrice per week for 2 weeks immunofluorescent staining-based assay; assay type: functional, organism-based
[6] = tested on: 4T1; assay: Antimetastatic activity against mouse 4T1 cells implanted in BALB/c mouse assessed as reduction in CD31-expressing vasculature at 24.5 mg/kg administered thrice per week for 2 weeks after 15 days post implantation by immunostaining-based assay; assay type: functional, organism-based

CCCC[C@H](NC(=O)[C@@H]1CCCN1C(=O)[C@@H](NC(=O)[C@H](CO)NC(=O)[C@H](CC(=O)O)NC(=O)[C@@H]1CCCN1C(=O)[C@H](Cc1ccc(O)cc1)NC(=O)[C@H](C)NC(=O)[C@H](CO)NC(=O)COc1ccc(F)c(Cl)c1)C(C)C)C(=O)N[C@@H](CCO)C(=O)N[C@@H](CO)C(=O)NCC(=O)NCCCC[C@H](NC(=O)CNC(=O)[C@H](CO)NC(=O)[C@H](CCO)NC(=O)[C@H](CCCC)NC(=O)[C@@H]1CCCN1C(=O)[C@@H](NC(=O)[C@H](CO)NC(=O)[C@H](CC(=O)O)NC(=O)[C@@H]1CCCN1C(=O)[C@H](Cc1ccc(O)cc1)NC(=O)[C@H](C)NC(=O)[C@H](CO)NC(=O)COc1ccc(F)c(Cl)c1)C(C)C)C(=O)NCC(=O)N[C@H](CCCCNC(=O)CCCc1cn(CCCCCC(=O)O[C@@H](C(=O)O[C@H]2C[C@@]3(O)[C@@H](OC(=O)c4ccccc4)[C@@H]4[C@]5(OC(C)=O)CO[C@@H]5C[C@H](O)[C@@]4(C)C(=O)[C@H](OC(C)=O)C(=C2C)C3(C)C)[C@@H](NC(=O)c2ccccc2)c2ccccc2)nn1)C(=O)NCC(=O)O
Activity [1]: Non-Toxic | Activity [2]: Active | Activity [3]: Active | Activity [4]: >75% | Activity [5]: Active | Activity [6]: Active
